Test results: patent US20230149401A1 (priority 2020, published 2023)

How the values were obtained:
[1] = tested on: HIV particles pseudotyped with SARS-CoV-2 S; type: cell-based
[2] = tested on: SARS-CoV-2 Spike ACE2-dependent cell-to-cell fusion; assay: microbe, parasite or virus in culture; type: cell-based; details: Severe acute respiratory syndrome coronavirus 2; 300 nM
PACE4 (PCSK6) = target: T1, PACE4 (PCSK6) (Homo sapiens, UniProt P29122); assay: Biochemical PC-inhibition assay, substrate FAM-[…]-TAMRA
T1 construct: PACE4 (PCSK6; 150-693-Tev-Flag-6His); Tev site (C); Flag (C); 6His (C); made in house; host or cells: BacMam transduced CHO cells
Experimental: (§1) Biochemical assay: The proprotein convertases furin (108-574-Tev-Flag-6His), PC5A (PCSK5; […]-Tev-Flag-6His), PACE4 (PCSK6; 150-693-Tev-Flag-6His), and PC7 (PCSK7; 142-634-Tev-Flag-6His) enzymes were purified from BacMam transduced CHO cells. […] 0.05 μl of each concentration was transferred to the corresponding well of an assay plate, and then 5 μl of enzyme (furin, PCSK5, PCSK6, and PCSK7) in assay buffer (100 mM HEPES pH 7.5, 1 mM CaCl2) and 0.005% Triton X-100) was added using a Multidrop Combi (Thermo) to the compound plates to give a final protein concentration of 0.02, 0.5, 2.5, and 1.0 nM respectively. The plates were mixed by inversion, and following a 30 min preincubation of enzyme with compound at room temperature (˜22° C.), the substrate FAM-[…] -TAMRA (AnaSpec #808143, 5 μl of a 1, 0.25, 0.20, and 0.5 μM solution in assay buffer for furin, PCSK5, PCSK6, and PCSK7 respectively) was added using a Multidrop Combi to the entire assay plate. The plates were centrifuged at 500×g for 1 minute and incubated at room temperature for two hours. Enzyme inhibition was then quantified using an Envision instrument (PerkinElmer). Data were normalized to maximal inhibition determined by 1 μM Decanoyl-Arg-Val-Lys-Arg-Chloromethylketone (Calbiochem #344930). Golgi imaging assay: This assay uses an image-based platform to evaluate the intracellular activity of furin inhibitors. Reactions were performed in black 384-well, tissue culture-treated, clear bottom plates (Greiner). Compounds under analysis were dissolved in DMSO (1.0 mM) and serially diluted 1 to 3 with DMSO through eleven dilutions. This creates a final compound concentration range from 0.00017 to 10 μM, and 0.1 μL of each concentration was transferred to the corresponding well of the assay plate.

PC7 (PCSK7) = target: T2, PC7 (PCSK7) (Homo sapiens, UniProt Q16549); assay: as above
T2 construct: PC7 (PCSK7; 142-634-Tev-Flag-6His); Tev site (C); Flag (C); 6His (C); made in house; host or cells: BacMam transduced CHO cells
Experimental: as §1

PC5A (PCSK5) = target: T3, PC5A (PCSK5) (Homo sapiens, UniProt Q92824); assay: as above
T3 construct: fused on or other part: C-terminal Tev site, Flag tag and 6His tag
Experimental: as §1

TMPRSS2 = TMPRSS2 (Homo sapiens, UniProt O15393); type: cell-based; set-up: expressed in transfected cells; host or cells: HeLa; details: HeLa cells
[3] = tested on: endogenous furin-like enzymes; type: cell-based; details: HeLa-ACE2 cells
SARS-CoV-2 [4] = assay: microbe, parasite or virus in culture; type: cell-based
furin-like convertases = type: cell-based; details: 1 μM; 293T17 producing cells and pseudovirions
SARS-CoV-2 [5] = type: cell-based

TMPRSS2, sequence (O15393 whole entry): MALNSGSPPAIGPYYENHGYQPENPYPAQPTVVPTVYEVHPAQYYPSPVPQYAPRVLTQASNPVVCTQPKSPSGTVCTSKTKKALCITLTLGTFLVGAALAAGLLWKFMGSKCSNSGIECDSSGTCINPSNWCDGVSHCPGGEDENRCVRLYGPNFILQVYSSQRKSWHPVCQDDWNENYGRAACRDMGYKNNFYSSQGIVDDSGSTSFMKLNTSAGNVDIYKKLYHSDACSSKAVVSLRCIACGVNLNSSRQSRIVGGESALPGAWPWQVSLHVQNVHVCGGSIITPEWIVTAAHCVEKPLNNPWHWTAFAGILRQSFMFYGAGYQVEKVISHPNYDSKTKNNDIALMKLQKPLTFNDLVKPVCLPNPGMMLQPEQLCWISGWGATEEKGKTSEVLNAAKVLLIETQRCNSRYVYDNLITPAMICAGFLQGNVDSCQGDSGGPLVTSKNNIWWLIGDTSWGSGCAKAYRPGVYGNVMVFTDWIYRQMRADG
T3 sequence (Q92824 115-601): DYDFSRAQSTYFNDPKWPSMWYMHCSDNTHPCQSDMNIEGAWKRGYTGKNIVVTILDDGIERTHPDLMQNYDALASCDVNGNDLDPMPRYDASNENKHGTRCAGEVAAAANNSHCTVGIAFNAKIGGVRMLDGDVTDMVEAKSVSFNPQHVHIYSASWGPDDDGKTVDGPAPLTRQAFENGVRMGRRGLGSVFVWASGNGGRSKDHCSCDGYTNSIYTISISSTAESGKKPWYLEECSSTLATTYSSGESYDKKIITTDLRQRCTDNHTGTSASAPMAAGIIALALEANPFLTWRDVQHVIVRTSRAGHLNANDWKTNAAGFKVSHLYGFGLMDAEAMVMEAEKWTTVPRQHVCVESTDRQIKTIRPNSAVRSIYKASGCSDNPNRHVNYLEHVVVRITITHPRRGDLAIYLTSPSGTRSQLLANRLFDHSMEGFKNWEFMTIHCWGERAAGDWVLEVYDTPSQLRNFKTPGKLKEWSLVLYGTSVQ
T1 sequence (P29122 150-693): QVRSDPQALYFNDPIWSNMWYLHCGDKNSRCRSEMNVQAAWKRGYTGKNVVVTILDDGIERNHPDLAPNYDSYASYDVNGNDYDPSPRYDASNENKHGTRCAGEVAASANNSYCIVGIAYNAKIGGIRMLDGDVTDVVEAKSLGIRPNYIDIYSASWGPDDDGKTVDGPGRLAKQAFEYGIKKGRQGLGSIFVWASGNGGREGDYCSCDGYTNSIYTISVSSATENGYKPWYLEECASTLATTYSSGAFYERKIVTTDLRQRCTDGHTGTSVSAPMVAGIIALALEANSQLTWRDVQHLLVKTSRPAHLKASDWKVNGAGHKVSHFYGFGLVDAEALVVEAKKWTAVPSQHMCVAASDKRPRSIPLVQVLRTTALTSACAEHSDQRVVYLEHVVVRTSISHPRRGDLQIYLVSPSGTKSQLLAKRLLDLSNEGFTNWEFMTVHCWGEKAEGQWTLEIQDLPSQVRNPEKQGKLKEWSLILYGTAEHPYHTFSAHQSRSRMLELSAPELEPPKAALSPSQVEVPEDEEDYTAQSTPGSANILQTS
T2 sequence (Q16549 142-634): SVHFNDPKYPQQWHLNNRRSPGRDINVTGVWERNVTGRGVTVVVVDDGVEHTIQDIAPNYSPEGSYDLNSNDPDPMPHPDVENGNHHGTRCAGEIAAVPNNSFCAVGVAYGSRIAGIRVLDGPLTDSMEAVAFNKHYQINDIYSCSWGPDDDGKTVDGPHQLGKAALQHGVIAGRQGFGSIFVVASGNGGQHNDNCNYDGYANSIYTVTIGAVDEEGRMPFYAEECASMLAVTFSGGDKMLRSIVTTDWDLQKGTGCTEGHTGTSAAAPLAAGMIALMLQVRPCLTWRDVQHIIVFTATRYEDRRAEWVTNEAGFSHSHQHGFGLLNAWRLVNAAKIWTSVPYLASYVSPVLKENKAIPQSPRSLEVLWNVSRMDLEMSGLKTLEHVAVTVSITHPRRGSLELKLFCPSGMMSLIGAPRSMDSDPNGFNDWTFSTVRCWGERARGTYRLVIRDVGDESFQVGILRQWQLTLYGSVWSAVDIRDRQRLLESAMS

CN1CCN(c2ncc(Oc3cc(CN4CCC(CC(=O)O)CC4)cc(-c4cc(Cl)cc(Cl)c4)n3)cn2)CC1 [Compound 93, 2-(1-((2-(3,5-dichloro-phenyl)-6-((2-(4-methyl-piperazin-1-yl)pyrimidin-5-yl)oxy)pyridin-4-yl)methyl)piperidin-4-yl)acetic acid]
Viral entry in Calu-3 of pseudovirions packaged in presence of inhibitor [1]: prevents viral entry
inhibition at 0.3 µM [2]: > 60%
IC50 (PACE4 (PCSK6)): ~7 nM
IC50 (PC7 (PCSK7)): ~7 nM
IC50 (PC5A (PCSK5)): ~7 nM
Generation of S2a and S2b by TMPRSS2 (TMPRSS2): none of the compounds affected
S1/S2 and S2′ processing by endogenous furin-like enzymes [3]: blocked
Concentration from which inhibitory effect could be observed (SARS-CoV-2 [4]): 0.25 µM
Levels of viral spike and nucleocapsid proteins and progeny virus levels (SARS-CoV-2 [4]): similarly decreased
Viral titers at 12, 24 and 48h post-infection (SARS-CoV-2 [4]): significantly decreased
Reduction of titer of progeny viruses (SARS-CoV-2 [4]; 1 μM): more than 30 fold
IC50 (SARS-CoV-2 [4]; Severe acute respiratory syndrome coronavirus 2, Calu-3, 24 h, read-out: IC50 (virus titer)): 200 nM
Processing of WT-S (furin-like convertases): clearly impaired
Virus production in infected Vero E6 cells (SARS-CoV-2 [5]): modestly reduce virus production
Decrease in virus production (SARS-CoV-2 [5]; 1 μM): ~5.7 fold
